Assay results from patent US20260158149A1, “GLYCOSYLATED PRODRUGS” (UNIVERSITEIT LEIDEN, priority 2021, published 2026).

Legend:
[1] = test system: neutrophils migrated to the wounded area; experiment: Tail fin amputation assay: neutrophil migration to the wounded area; assay type: in vivo, Zebrafish (Danio rerio)
Experimental: Zebrafish (Danio rerio) were maintained and handled according to the guidelines from the Zebrafish Model Organism Database (https://zfin.org/) and in compliance with the directives of the local animal welfare committee of Leiden University. To maintain circadian rhythmicity, adult fish were exposed to a 14 h light and 10 h dark cycle. Fertilization was performed by natural spawning at the beginning of the light period. Fertilized eggs were collected and raised at 28° C. in egg water (60 μg/ml Instant Ocean sea salts and 0.0025% methylene blue). The following zebrafish lines were used in this study: AB/TL wild type, the transgenic lines Tg(mpx:GFP^i114/mpeg1:mCherry^umsF001) (Bernut et al., (2014). Mycobacterium abscessus cording prevents phagocytosis and promotes abscess formation. Proc Natl Acad Sci USA 111, E943-952; Renshaw et al., (2006). A transgenic zebrafish model of neutrophilic inflammation. Blood 108, 3976-3978), and Tg(9xGCRE-HSV.UI123:EGFP)^ia20 (Benato et al., (2014). A living biosensor model to dynamically trace glucocorticoid transcriptional activity during development and adult life in zebrafish. Mol Cell Endocrinol 392, 60-72), and the mutant lines gba2^−/− (Lelieveld et al., (2019). Role of beta-glucosidase 2 in aberrant glycosphingolipid metabolism: model of glucocerebrosidase deficiency in zebrafish. J Lipid Res 60, 1851-1867) and gr^s357 (Ziv et al., (2013). An affective disorder in zebrafish with mutation of the glucocorticoid receptor. Mol Psychiatry 18, 681-691).
For the tail fin amputation experiments, 3 days post fertilization (dpf) larvae from the Tg(mpx:GFP^i114/mpeg1:mCherry^umsF001) line were anesthetized in 0.02% buffered aminobenzoic acid ethyl ester (tricaine) in egg water and placed on a 2% agarose-coated petri dish. The tails were partially amputated with a 1 mm sapphire blade (World Precision Instruments) under a Leica M165C stereomicroscope (Leica Microsystems, Wetzlar, Germany). Chemical treatment (or 0.1% DMSO as vehicle treatment) was started at 2 h before the amputation (pretreatment) and was continued for 4 h after the tail fin amputation (20 larvae per group, unless indicated otherwise), at which time point the larvae were fixed in 4% paraformaldehyde (PFA) overnight at 4° C. and stored at 4° C. until further examination. In some experiments, a 24 h treatment with miglustat, ME656 or MZ31 was started at 2 dpf, and these treatments were continued during the pretreatment and treatment with the other chemicals. For imaging of larvae from the Tg(mpx:GFP^i114/mpeg1:mCherry^umsF001) line, a LeicaMZ16FA fluorescence stereomicroscope with LAS 3.7 software was used. Neutrophils were detected by GFP fluorescence and macrophages by mCherry fluorescence. The neutrophil numbers were determined by blinded manual counting in a pre-determined area. When larvae from gba2^−/− or gr^s357mutant lines were used, neutrophil labeling was performed with the TSA fluorescein detection kit (PerkinElmer) for specific staining of Myeloperoxidase (Mpx)-positive cells, following the manufacturer's instructions.

[2] = Whole-body cortisol measurement using ELISA
Experimental: Zebrafish embryos at 2 hpf received a chemical treatment, as indicated, with daily refreshment of the solutions, until 96 hpf. Then, the treatments were stopped and embryos were incubated in egg water until 5 dpf to avoid cross-reactivity with the compounds of the cortisol antibody used in the ELISA. Then, the treatments were stopped and replaced with egg water. At 5 dpf, the larvae were collected in an Eppendorf tube and 100 μL of ice-cold phosphate-buffered saline (PBS) was added. The larvae were homogenized using a BulletBlender® for 3 min at 8,000 rpm. Ethyl acetate was added to the homogenate and the supernatant was gathered and vaporized. A volume of 150 μl of 0.2% Bovine serum albumin (Sigma Aldrich) dissolved in phosphate-buffered saline (PBS) was added to the samples and frozen. Whole-body cortisol of the zebrafish larvae was determined by ELISA (Demeditec Diagnostics GmbH, Kiel-Wellsee, Germany), following the manufacturer's instructions. In each experiment, three biological replicates were used for each treatment group, and the colorimetric assay was performed using technical duplicates.

[3] = target: T1, human GR (Homo sapiens, UniProt P04150); experiment: PolarScreen Glucocorticoid Receptor Competitor Assay
T1 sequence (P04150 1-777): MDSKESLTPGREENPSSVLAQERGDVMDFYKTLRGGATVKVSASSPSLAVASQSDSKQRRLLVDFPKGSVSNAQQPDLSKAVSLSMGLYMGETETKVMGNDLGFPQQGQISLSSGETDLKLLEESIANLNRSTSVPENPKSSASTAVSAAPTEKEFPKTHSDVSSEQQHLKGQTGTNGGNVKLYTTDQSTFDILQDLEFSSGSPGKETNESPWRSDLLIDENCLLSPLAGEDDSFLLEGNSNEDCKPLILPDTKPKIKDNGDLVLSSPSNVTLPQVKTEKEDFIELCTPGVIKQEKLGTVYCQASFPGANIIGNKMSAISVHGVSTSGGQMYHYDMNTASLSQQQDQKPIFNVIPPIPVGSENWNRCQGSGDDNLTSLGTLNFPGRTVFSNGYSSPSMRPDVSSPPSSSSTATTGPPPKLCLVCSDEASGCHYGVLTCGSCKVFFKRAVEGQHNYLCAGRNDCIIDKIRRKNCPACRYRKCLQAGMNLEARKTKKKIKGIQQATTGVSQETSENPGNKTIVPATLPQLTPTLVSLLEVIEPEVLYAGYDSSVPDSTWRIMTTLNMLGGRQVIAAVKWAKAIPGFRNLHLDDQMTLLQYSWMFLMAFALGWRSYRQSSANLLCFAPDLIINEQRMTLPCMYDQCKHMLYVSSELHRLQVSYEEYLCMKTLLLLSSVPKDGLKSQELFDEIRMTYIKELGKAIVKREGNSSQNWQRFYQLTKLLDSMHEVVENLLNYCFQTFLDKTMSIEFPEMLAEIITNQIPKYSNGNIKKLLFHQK

SMILES: C[C@]12C=CC(=O)C=C1CC[C@@H]1[C@@H]2[C@@H](O)C[C@@]2(C)[C@H]1CC[C@]2(O)C(=O)CO[C@@H]1O[C@H](CO[C@@H]2O[C@H](CO)[C@@H](O)[C@H](O)[C@H]2O)[C@@H](O)[C@H](O)[C@H]1O [GbPdn, 21-O-Gentobiose-Prednisolone]
- reduction in neutrophil migration in the presence of MZ31 ([1]; GBA2 inhibitor MZ31): abolished by MZ31
- migration of neutrophils towards the wounded area ([1]; wild type larvae, 4 h after tail wounding): decrease in the migration of neutrophils
- whole body cortisol level ([2]; 5 dpf larvae treated from 2 hpf, non-wounded): did not affect the glucose or cortisol concentration
- whole body cortisol level under wounding conditions ([2]; 5 dpf larvae, wounded at 2 dpf): decrease in cortisol concentration
- decrease in the binding affinity relative to Pdn [3]: ~1400 fold
